Measured values as given in PMC6935685 (Pharmacology Research & Perspectives, 2019).
Where “and” joins values, the source holds several entries; their conditions need not be identical. Equal values may be shown once. Read-outs that look alike come from different tables or passages of the source.

What was measured:
human MT1 (hMT1) [1] = target: T1, human MT1 (hMT1) (Homo sapiens, UniProt P48039); experiment: 2-[125I]-iodomelatonin competition binding, CHO-K1 membranes
human MT2 (hMT2) [2] = target: T2, human MT2 (hMT2) (Homo sapiens, UniProt P49286); experiment: as above
T2 sequence (P49286 1-362): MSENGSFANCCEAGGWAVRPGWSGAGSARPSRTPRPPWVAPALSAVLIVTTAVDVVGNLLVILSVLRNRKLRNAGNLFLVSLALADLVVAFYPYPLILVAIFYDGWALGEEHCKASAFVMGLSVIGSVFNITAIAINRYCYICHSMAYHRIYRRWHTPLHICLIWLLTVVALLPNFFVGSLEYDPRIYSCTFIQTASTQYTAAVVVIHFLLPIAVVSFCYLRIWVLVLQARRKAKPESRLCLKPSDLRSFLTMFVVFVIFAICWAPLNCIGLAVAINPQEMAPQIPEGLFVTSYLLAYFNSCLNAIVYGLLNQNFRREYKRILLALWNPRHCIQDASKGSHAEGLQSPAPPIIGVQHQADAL

human MT1 (hMT1) [3] = target: T1, human MT1 (hMT1); experiment: [35S]-GTPγS binding, agonist mode GTPγS; assay type: biochemical
MT2 [4] = target: T3, MT2 (Homo sapiens, UniProt P49286); experiment: HTRF cAMP assay, agonist mode cAMP; assay type: cell-based; settings: for Emax, cAMP (+): hMT2, inhibition of cAMP production, normalization vs melatonin
T3 sequence (P49286 1-362): T2 sequence (P49286 1-362)

MT2 [5] = target: T3, MT2; experiment: HTRF cAMP assay, antagonist mode cAMP; assay type: cell-based
MT1 [6] = target: T4, MT1 (Homo sapiens, UniProt P48039); experiment: Overall functionality from the signaling pathway panel
MT2 [7] = target: T3, MT2; experiment: as above
MT2 [8] = target: T3, MT2; experiment: β-arrestin recruitment, PathHunter CHO-K1 cells; assay type: cell-based
MT2 [9] = target: T3, MT2; experiment: Receptor internalization, U2O-S cells; assay type: cell-based; settings: for receptor internalization: MT2
human MT2 (hMT2) [10] = target: T2, human MT2 (hMT2); experiment: [35S]-GTPγS binding, agonist mode GTPγS; assay type: biochemical
human MT1 (hMT1) [11] = target: T1, human MT1 (hMT1); experiment: [35S]-GTPγS binding, antagonist mode GTPγS; assay type: biochemical
human MT2 (hMT2) [12] = target: T2, human MT2 (hMT2); experiment: [35S]-GTPγS binding, antagonist mode GTPγS; assay type: biochemical
MT1 [13] = target: T4, MT1; experiment: HTRF cAMP assay, agonist mode cAMP; assay type: cell-based; settings: inhibition of cAMP production, normalization vs melatonin
MT1 [14] = target: T4, MT1; experiment: β-arrestin recruitment, PathHunter CHO-K1 cells; assay type: cell-based
MT1 [15] = target: T4, MT1; experiment: Receptor internalization, DLD-1 cells; assay type: cell-based
MT1 [16] = target: T4, MT1; experiment: Cellular dielectric spectroscopy; assay type: cell-based; settings: MT1
MT2 [17] = target: T3, MT2; experiment: Cellular dielectric spectroscopy; assay type: cell-based; settings: MT2
[18] = MT1 Affinity (pKi), against 2-[125I]iodomelatonin

T1 sequence (P48039 whole entry): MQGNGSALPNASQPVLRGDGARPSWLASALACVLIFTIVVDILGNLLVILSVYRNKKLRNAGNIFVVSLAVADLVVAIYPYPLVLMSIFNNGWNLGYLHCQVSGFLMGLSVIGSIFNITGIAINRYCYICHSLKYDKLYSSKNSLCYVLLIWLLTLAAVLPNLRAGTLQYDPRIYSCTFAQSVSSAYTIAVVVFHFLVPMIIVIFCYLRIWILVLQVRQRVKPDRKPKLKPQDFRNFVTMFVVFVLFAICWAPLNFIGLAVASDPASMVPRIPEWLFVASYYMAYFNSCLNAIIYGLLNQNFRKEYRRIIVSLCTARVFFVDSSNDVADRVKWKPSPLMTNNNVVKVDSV
T4 sequence (P48039 whole entry): as above

| Compound | Ki (human MT1 (hMT1) [1]; [18]) | Ki (human MT2 (hMT2) [2]) | MT1 Our data (functionality) (MT1 [6]) | MT2 Our data (functionality) (MT2 [7]) | receptor internalization (MT2 [9]) | also measured |
| --- | --- | --- | --- | --- | --- | --- |
| CCC(=O)NC1Cc2ccccc2C(c2ccccc2)C1 (centres unmarked) [4P‐PDOT, 4‐phenyl‐2‐propionamidotetraline, reference compound] | 141 nM | 1.07 nM | partial ago | partial ago |  | Ki (human MT1 (hMT1) [1]; affinity for MT1, order of magnitude given in text): ~100 nM; induction of GTPγS binding (human MT1 (hMT1) [3]): does not induce GTPγS binding; Emax, cAMP (+) (MT2 [4]): ~90% and 100%; EC50 (MT2 [4]; pEC50, cAMP production inhibition, MT2, text): 2 nM; antagonism in cAMP assay (MT2 [5]; MT2): completely inactive |
| COc1ccc2cccc(CCNC(C)=O)c2c1 [Agomelatine, N‐[2‐(7‐methoxynaphthalen‐1‐yl)ethyl]acetamide, reference compound] |  |  | ago | ago |  | MT1 Our data (functionality) (MT1 [6]; listed as S20098): agonists; MT2 Our data (functionality) (MT2 [7]; listed as S20098): agonists |
| CC(=O)NCCc1c(Cc2ccccc2)[nH]c2ccccc12 [Luzindole, N‐acetyl‐2‐benzyltryptamine, reference compound] | 257 nM |  | antago | partial ago | induces the internalization | Emax, cAMP (+) (MT2 [4]): 70%; Emax (MT2 [5]; read-out: Emax, cAMP (−)): 55%; β-arrestin recruitment (MT2 [8]): does not recruit; EC50 (MT2 [9]): ~10 nM |
| COc1ccc2[nH]cc(CCNC(C)=O)c2c1 [Melatonin, N‐acetyl‐5‐methoxytryptamine, reference compound] |  |  | ago |  |  |  |
| O=C(NCCc1cccc2ccccc12)C1CCC1 [S20928, (N‐[2‐(1‐naphthyl)ethyl]cyclobutanecarboxamide)] | 170 nM |  |  |  | does not induce internalization | induction of GTPγS binding (human MT2 (hMT2) [10]): induces the binding of GTPγS; inhibition of melatonin-induced GTPγS binding (human MT1 (hMT1) [11]): fully inhibits; inhibition of melatonin-induced GTPγS binding (human MT2 (hMT2) [12]): slightly inhibits; Emax, cAMP (+) (MT1 [13]): less than 25%; Emax, cAMP (+) (MT2 [4]): 50%; β-arrestin recruitment (MT1 [14]): capacity to recruit; receptor internalization (MT1 [15]): does not induce internalization; cell shape shift, CellKey (MT1 [16]): failed to elicit any significant shift in shape; concentration of maximal effect (CellKey) (MT2 [17]): ~100 nmol/L |
| COc1ccc2ncn(CCNC(C)=O)c2c1 [S21278, N‐[2‐(6‐methoxy‐benzimidazol‐1‐yl)ethyl]acetamide] | 603 nM | 603 nM | agonists | agonists and ago | not enough to elicit internalization | β-arrestin recruitment (MT1 [14]): complete recruitment |
| CCc1ccc2scc(CCNC(C)=O)c2c1 [S22153, N‐[2‐(5‐ethylbenzothiophen‐3‐yl)ethyl]acetamide] | 9.77 nM | 7.94 nM | partial ago | ago |  |  |
| COc1cc2c(CCNC(C)=O)c(I)[nH]c2cc1[N+](=O)[O-] [S27128, N‐[2‐(2‐iodo‐5‐methoxy‐6‐nitro‐1H‐indol‐3‐yl)ethyl]acetamide] | 1.2 nM |  | agonists and ago | agonists and ago | exhibited subsequent internalization | receptor internalization (MT1 [15]): exhibited subsequent internalization |
| COCC(CNC(C)=O)c1cccc2ccc(OC)cc12 (centres unmarked) [S73893, N‐[3‐methoxy‐2‐(7methoxy‐ 1‐naphthyl)propyl]acetamide] | 4.37 nM | 7.76 nM | partial ago |  |  |  |
| COc1ccc2cccc(C(CO)CNC(=O)CF)c2c1 (centres unmarked) [S75436, 2‐fluoro‐N‐[3‐hydroxy‐2‐(7‐methoxy‐1‐naphthyl)propyl]acetamide] |  | 1.12 nM | agonists and ago | agonists and ago |  | Ki (human MT1 (hMT1) [1]): 9.12 nM |
| COc1ccc2c(c1)C(CNC(N)=O)Cc1ccccc1C2 (centres unmarked) [S77840, 1‐[(8‐methoxy‐10,11‐dihydro‐5H‐dibenzo[a,d]‐[7]annulen‐10‐yl)methyl]urea] |  |  |  |  | lack of capacity to provoke internalization | receptor internalization (MT1 [15]): lack of capacity to provoke internalization; cell shape shift, CellKey (MT2 [17]): failed to elicit any significant shift in shape |
| COc1ccc2[nH]cc(CCNC(=O)CI)c2c1 [SD6, N‐[2‐(5‐methoxy‐1H‐indol‐3‐yl)ethyl] iodoacetamide] |  |  | agonists and ago | agonists and ago |  |  |
| COc1cc2c(CCNC(C)=O)c[nH]c2cc1I [SD1881, N‐[2‐(6‐iodo‐5‐methoxy‐1H‐indol‐3‐yl)ethyl]acetamide] | 1.45 nM | 2.45 nM | agonists and ago | agonists and ago |  |  |
| COc1ccc2[nH]cc(CCNC(C)=O)c2c1I [SD1882, N‐[2‐(4‐iodo‐5‐methoxy‐1H‐indol‐3‐yl)ethyl] acetamide] | 17.4 nM | 10.2 nM | partial ago | ago |  | concentration of maximal effect (CellKey) (MT1 [16]): ~100 nmol/L |
| COc1cc(I)c2[nH]cc(CCNC(C)=O)c2c1 [SD1918, N‐[2‐(7‐iodo‐5‐methoxy‐1H‐indol‐3‐yl)ethyl]acetamide] | 45.7 nM | 47.9 nM | partial ago | ago |  |  |
| methoxyverapamil [D600, reference compound] |  |  | antago |  | did not induce | MT1 Affinity (pKi) (human MT1 (hMT1) [1]; against 2-[125I]iodomelatonin): 7 and 7.04; MT2 Affinity (pKi) (human MT2 (hMT2) [2]; against 2-[125I]iodomelatonin): <6; β-arrestin recruitment (MT1 [14]): did not induce; β-arrestin recruitment (MT2 [8]): did not induce; receptor internalization (MT1 [15]): did not induce |
